Active and inactive are the calls of the source. The rule behind the calls is not given here.
Experiments:
[1] = biological target: T1, Dihydrofolate reductase (Homo sapiens) (UniProt P00374); test: Inhibition of DHFR (unknown origin) using dihydro folic acid as substrate at 0.5 mM preincubated with compound for 5 mins followed by substrate addition and measured after 30 mins in presence of NADPH by absorbance based assay relative to control; conditions: time 35.0 min
T1 sequence (whole entry): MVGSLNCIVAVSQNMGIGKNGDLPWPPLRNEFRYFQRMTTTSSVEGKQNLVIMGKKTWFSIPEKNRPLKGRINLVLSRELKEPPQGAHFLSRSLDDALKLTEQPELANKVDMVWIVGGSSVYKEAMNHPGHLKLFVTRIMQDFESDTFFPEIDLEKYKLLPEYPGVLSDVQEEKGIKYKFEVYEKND

Dihydrofolate reductase = biological target: T2, Dihydrofolate reductase (Homo sapiens, UniProt P00374); test: (§1) Inhibition of DHFR (unknown origin) using dihydro folic acid as substrate preincubated with compound for 5 mins followed by substrate addition and measured after 30 mins in presence of NADPH by absorbance based assay
T2 sequence (P00374 whole entry): T1 sequence (whole entry)

[2] = biological target: T1, Dihydrofolate reductase (Homo sapiens); test: as §1; conditions: time 35.0 min

Compound	inhibition [1] [%]	IC50 (Dihydrofolate reductase) [µM]	inhibition [2]
Cc1ccccc1-n1cc(CC2(Cc3cn(Cc4ccc(C#N)cc4)c4ccccc34)C(=O)OC(C)(C)OC2=O)nn1	90.6	14.5	
COc1ccc(OC(=O)C(Cc2cn(-c3ccc(Br)cc3)nn2)Cc2cn(Cc3ccc(C#N)cc3)c3ccccc23)cc1 (configuration not stated)	86.7	25.3	
CC1(C)OC(=O)C(Cc2c[nH]c3ccccc23)C(=O)O1	36.2		inactive
CC1(C)OC(=O)C(Cc2cn(-c3ccc(F)cc3)nn2)(Cc2cn(CCC#N)c3ccccc23)C(=O)O1	92.5	4.78	
COc1ccc(-n2cc(CC3(Cc4c[nH]c5ccccc45)C(=O)OC(C)(C)OC3=O)nn2)cc1	90.9	4.36	
N#Cc1ccc(Cn2cc(C=O)c3ccccc32)cc1	25.2		inactive
COc1ccc(-n2cc(CC3(Cc4cn(CCC#N)c5ccccc45)C(=O)OC(C)(C)OC3=O)nn2)cc1	91.8	5.83	
CC1(C)OC(=O)C(Cc2cn(-c3ccc(Br)cc3)nn2)(Cc2cn(Cc3ccc(C#N)cc3)c3ccccc23)C(=O)O1	91.5	9.1	
CC1(C)OC(=O)C(Cc2cn(-c3ccccc3)nn2)(Cc2c[nH]c3ccccc23)C(=O)O1	89.7	23.8	
Cc1ccccc1-n1cc(CC2(Cc3c[nH]c4ccccc34)C(=O)OC(C)(C)OC2=O)nn1	90.7	19.6	
C#CCC1(Cc2cn(CCC#N)c3ccccc23)C(=O)OC(C)(C)OC1=O	46.2		inactive
COc1ccc(OC(=O)C(Cc2cn(-c3ccc(F)cc3)nn2)Cc2cn(Cc3ccc(C#N)cc3)c3ccccc23)cc1 (configuration not stated)	90.9	16.1	
CC1(C)OC(=O)C(Cc2cn(-c3ccc(Br)cc3)nn2)(Cc2c[nH]c3ccccc23)C(=O)O1	91.6	9.57	
CC1(C)OC(=O)C(Cc2cn(Cc3ccc(C#N)cc3)c3ccccc23)C(=O)O1	25.5		inactive
CC1(C)OC(=O)C(Cc2cn(-c3ccc(F)cc3)nn2)(Cc2cn(Cc3ccc(C#N)cc3)c3ccccc23)C(=O)O1	91.7	6.15	
CC1(C)OC(=O)C(Cc2cn(-c3ccccc3)nn2)(Cc2cn(Cc3ccc(C#N)cc3)c3ccccc23)C(=O)O1	86.2	30.4	

Compound	inhibition [1] [%]	IC50 (Dihydrofolate reductase) [µM]	inhibition [2]
C#CCC1(Cc2c[nH]c3ccccc23)C(=O)OC(C)(C)OC1=O	40.2		inactive
CC1(C)OC(=O)C(Cc2cn(-c3ccc(F)cc3)nn2)(Cc2c[nH]c3ccccc23)C(=O)O1	91.7	5.1	
COc1ccc(OC(=O)C(Cc2cn(-c3ccc(F)cc3)nn2)Cc2cn(CCC#N)c3ccccc23)cc1 (configuration not stated)	91.3	12.8	
CC1(C)OC(=O)C(=Cc2cn(Cc3ccc(C#N)cc3)c3ccccc23)C(=O)O1	30.2		inactive
CC1(C)OC(=O)C(=Cc2cn(CCC#N)c3ccccc23)C(=O)O1	35.3		inactive
C#CCC1(Cc2cn(Cc3ccc(C#N)cc3)c3ccccc23)C(=O)OC(C)(C)OC1=O	41.4		inactive
CC1(C)OC(=O)C(Cc2cn(-c3ccccc3)nn2)(Cc2cn(CCC#N)c3ccccc23)C(=O)O1	87.3	27.6	
CC1(C)OC(=O)C(Cc2cn(-c3ccc(C(F)(F)F)cc3)nn2)(Cc2cn(Cc3ccc(C#N)cc3)c3ccccc23)C(=O)O1	91.8	8.71	
N#CCCn1cc(C=O)c2ccccc21	24.8		inactive
Cc1ccccc1-n1cc(CC2(Cc3cn(CCC#N)c4ccccc34)C(=O)OC(C)(C)OC2=O)nn1	89.4	18.3	
COc1ccc(-n2cc(CC3(Cc4cn(Cc5ccc(C#N)cc5)c5ccccc45)C(=O)OC(C)(C)OC3=O)nn2)cc1	92.3	3.48	
CC1(C)OC(=O)C(Cc2cn(-c3ccc(C(F)(F)F)cc3)nn2)(Cc2cn(CCC#N)c3ccccc23)C(=O)O1	90.5	13.9	
CC1(C)OC(=O)C(Cc2cn(-c3ccc(Br)cc3)nn2)(Cc2cn(CCC#N)c3ccccc23)C(=O)O1	91.6	11.3	
CC1(C)OC(=O)C(Cc2cn(CCC#N)c3ccccc23)C(=O)O1	38.9		inactive
CC1(C)OC(=O)C(Cc2cn(-c3ccc(C(F)(F)F)cc3)nn2)(Cc2c[nH]c3ccccc23)C(=O)O1	91.3	10.1	

Source: ChEMBL document CHEMBL6074720, “Dihydrofolate reductase inhibitory potential of 1H-indole-based-meldrum linked 1H-1,2,3-triazoles as new anticancer derivatives: In-vitro and in-silico studies” (Eur J Med Chem, 2025)
